The values that follow come from patent publication US20050074820A1, “Method for the immunohistological detection of fibrogenesis in histological tissue sections using antiboides against C-terminal procollagen alpha1 (III) propeptide” (priority 2001, published 2005).

For one experiment, the system named is α-SMA. Nature of the experiment: Quantitative immunostain of α-SMA in liver tissue sections (image analysis). In kind it is in vivo, human. The following applies: for α-SMA expression (stained area over total area): all lamivudine patients; for α-SMA expression: lamivudine-treated, Pre. Here is the method: (§1) Paraffin-embedded tissue sections were stained for α-smooth muscle actin (α-SMA) or PIIICP (FIG. 2). The staining procedure was carried out using the DAKO Envision System (DAKO; Carpinteria, Calif., USA). After inhibiting endogenous peroxidase with Peroxidase Blocking Agent (DAKO) the tissue sections were incubated for 10 minutes at room temperature with a murine monoclonal anti-α-SMA antibody (diluted 1:200 in PBS+1% BSA) or with a murine monoclonal anti-PIIICP antibody (antibody concentration 5 mg/ml; diluted 1:100 in PBS+1% BSA). After the incubation, the sections were washed twice with PBS buffer for 3 minutes, respectively. The tissue sections were then incubated with labelled polymer (peroxidase-labelled polymer conjugated with anti-rabbit and anti-mouse immunoglobulins from the goat) at room temperature for 10 minutes. After washing twice with PBS buffer the tissue sections were incubated with 3,3-diaminobenzidine (DAB) substrate for 8 minutes, rinsed with water and exposed to DAB Enhancer (Innovex Bioscience; Richmond, Calif., USA) for 5 minutes and subsequently rinsed with water again. Counterstaining was performed with hematoxyline. As a negative control all samples were incubated with 1% BSA solution instead of antibody.
(§2) The stained parenchymal areas on the tissue sections, that are formed by α-SMA or PIIICP-positive hepatic stellate cells, were quantified with the Bioquant TCW 98 image analysis program (Bioquant Image Analysis; www.bioquant.com) with the connected Computer as well as with an Olympus microscope. The results were stated as the percent ratio between the stained area and the total area.
(§3) The immunohistochemical quantification was futhermore correlated with changes of individual components of the histological activity index (HAI) or with entire HAI. For the individual patients in both treatment groups—lamivudine or placebo, respectively—the change of α-SMA- or PIIICP-stained areas was calculated according to: ΔSMA (or ΔPIIICP)=percent area before treatment minus percent […]. The mean change was compared between the lamivudine-treated and the placebo-treated groups using Student's t-Test.

The next experiment deals with PIIICP. Description: Quantitative immunostain of PIIICP in liver tissue sections (image analysis). The conditions noted are these: for PIIICP expression (stained area over total area): all lamivudine patients; for PIIICP expression: lamivudine-treated, Pre. In kind it is in vivo, human. The procedure: as §1, §2, §3
Experiment [1] relates to patients with chronic hepatitis B. Description: Serum ALT before and after 52 weeks of treatment, phase III trials. In kind it is in vivo, human.
Experiment [2] relates to hepatitis B virus (HBV) DNA. Description: HBV DNA concentration before and after treatment. The format is in vivo.
Experiment [3] has as its system hepatitis B e-antigen (HBeAg). Nature of the experiment: Loss of hepatitis B e-antigen under treatment. In kind it is in vivo, hepatitis B virus. The following applies: lamivudine 100 mg daily, 52 weeks; versus 9% placebo, p<0.05. An excerpt:
The liver tissue samples were examined by a pathologist. […] A reduction of the HAI by 2 points HAI is considered a significant change in hepatic histology after the termination of the treatment.
The baselines and the quantitative immunostains against α-SMA und PIIICP were compared between lamivudine und placebo patients using Student's t-tests. In addition, the results of the immunostains were correlated with the loss of the hepatitis B e-antigen (HBeAg) using the Mantel-Haenszel chi square test.

Setting [4] is: lamivudine group n = 47, Post (100 mg daily, 52 weeks).

The structures appear in SMILES notation.

For the compound `Nc1ccn([C@@H]2CS[C@H](CO)O2)c(=O)n1` [Lamivudine, lamivudine], the “α-SMA expression (stained area over total area)” value is on record as 0.58±0.11% with α-SMA (after treatment) and 1.06±0.23% in the experiment on α-SMA (before treatment). Also, the results for the α-SMA expression in the experiment with α-SMA (HbeAg loss (n = 17)) and with α-SMA (No loss of HbeAg (n = 30)) were 1.46 and 0.83, respectively. The “PIIICP expression (stained area over total area)” value in the experiment with PIIICP (after lamivudine) is 0.02%; in the experiment with PIIICP (before lamivudine), 0.06%. The PIIICP expression in the experiment on PIIICP (HbeAg loss (n = 17)) is 0.10; in the experiment on PIIICP (No loss of HbeAg (n = 30)), 0.03. Also, the “ALT (mean ± SD)” value in experiment [1] (chronic hepatitis B patients, lamivudine group n = 47, Pre (before treatment)) came out at 154 ± 100 IU/l; in experiment [1] (setting [4]), 60.7 ± 55 IU/l. Moreover, the “HBV DNA” value is 33 ± 120 pg/mL in experiment [2] (setting [4]) and 180 ± 211^ψ pg/ml in experiment [2] (lamivudine group n = 47, Pre (before treatment)). The “patients who lost the HbeAg” value in experiment [3] is reported as 36.2%.
